Values quoted from earlier work in US20190105277A1, “PHARMACEUTICAL COMPOSITION COMPRISING AN ATYPICAL ANTIPSYCHOTIC AGENT AND METHOD FOR THE PREPARATION THEREOF” (PHARMATHEN S.A., priority 2016, published 2019).
Read-outs that look alike come from different tables or passages of the source.

SMILES: Cc1nc2n(c(=O)c1CCN1CCC(c3noc4cc(F)ccc34)CC1)CCCC2O (stereo not drawn) [Paliperidone, 3-[2-[4-(6-fluoro-1,2-benzisoxazol-3-yl)-1-piperidinyl]ethyl]-6,7,8,9-tetrahydro-9-hydroxy-2-methyl-4H-pyrido[1,2-a]pyrimidin-4-one]
- solubility (in 0.1N HCl): slightly soluble
- solubility (in dichloromethane): sparingly soluble
- solubility (in water): insoluble
